Data: patent publication US10654848B1, “Neutrophil inflammation inhibitor and uses thereof” (Chang Gung University of Science and Technology, priority 2018, dated 2020)
Where a name gives a salt, the structure may show the parent alone.

What was measured:
human neutrophils [1] = assay: Superoxide anion (O2•−) generation in fMLF/CB-activated human neutrophils (SOD-inhibitable ferricytochrome c reduction); format: cell-based; details: at 10 μM concentration; FMLP/CB-induced human neutrophils; mean ± S.E.M. (n = 3-5)
Description: (§1) Human neutrophils were obtained in lipopolysaccharide-free conditions by means of dextran sedimentation and Ficoll centrifugation.
O2^•− production was determined based on the SOD-inhibitable reduction of ferricytochrome c. Briefly, neutrophils (6×10^5/mL) were treated with a candidate compound at 37° C. at various concentrations (0.001 to 10 μM) for 5 min after being supplementing with 0.5 mg/mL ferricytochrome c and 1 mM Ca^2+. Cells were then activated with fMLF (0.1 μM) for 10 min in the pre-process of cytochalasin B (CB, 1 μg/mL) for 3 min. Changes in absorbance with the reduction of ferricytochrome c at 550 nm were continuously monitored in a double-beam, six-cell positioner spectrophotometer with constant stirring (Hitachi U-3010, Tokyo, Japan). Calculations were based on the differences in the reactions with and without SOD (100 U ml^−1) divided by the extinction coefficient for the reduction of ferricytochrome c (E=21.1 mM^−1/10 mm).

human neutrophils [2] = assay: Elastase release in fMLF/CB-activated human neutrophils (MeO-Suc-Ala-Ala-Pro-Val-p-nitroanilide substrate); format: cell-based; details: Neutrophil, neutrophils in response to fMLF, Table 2, read-out: IC50 for suppressing elastase release
Description: as §1
Methoxysuccinyl-Ala-Ala-Pro-Val-p-nitroanilide was employed as the elastase substrate for the determination of elastase release. Briefly, after supplementation with Methoxysuccinyl-Ala-Ala-Pro-Val-p-nitroanilide (100 μM), neutrophils (6×10^5/mL) were equilibrated at 37° C. for 2 min and incubated with a candidate compound at various concentrations for 5 min. Cells were then activated with fMLF (0.1 μM) for 10 min in the pre-process of CB (0.5 μg/mL) for 3 min, and changes in absorbance at 405 nm were continuously monitored to evaluate elastase release. Results are expressed as the percentage of elastase release in the drug-free control group, DMSO.

BALB/c mice [3] = assay: Imiquimod-induced psoriasis-like skin inflammation in mice; format: in vivo, mouse; details: 20 mg/kg intraperitoneal, 30 min before 5% IMQ cream, daily for 7 days
Description: (§2) Male BALB/c mice aged 7-8 weeks were purchased from BioLASCO (Taipei, Taiwan) and maintained in a room with 12 hr light/dark cycles. Standard laboratory chow and water were available ad libitum. All animal experimental procedures were performed in accordance with guidelines and approved by the Institutional Animal Care and Use Committee of Chang Gung University.
Male BALB/c mice aged 7-8 weeks were used for the development of the imiquimod-induced psoriatic-like plaque model. The dorsal skin of the mice were shaved and received a daily topical dose of 62.5 mg of 5% imiquimod (IMQ) cream (Aldara, MEDA Pharma, Sweden) with or without a test compound (e.g., HKI-4971) treatment by intraperitoneal injection for 7 consecutive days.
Tissue samples were fixed in 10% neutral buffered formalin and embedding in paraffin blocks. Sections of the samples were prepared at 5 μm thickness and stained with hematoxylin and eosin (H&E). For immunohistochemistry staining, the sections were incubated with primary antibodies against Ly6g, MPO, and ki67 then the secondary antibody was applied for the detection of the primary antibody according to the manufacturer's instructions of the SuperPicture Polymer Detection Kit (Thermo Fisher, USA). Finally, the section slides were subsequently stained with DAB chromogen and counterstained with hematoxylin. […]

BALB/c mice [4] = assay: Liver and kidney function (ALT, AST, BUN, creatinine) in blood of imiquimod-induced mice; format: in vivo, mouse; details: blood samples, 20 mg/kg intraperitoneal, alone or with IMQ, 7 days; FIG. 3 (n=3)
Description: In this example, the effect of HKI-4971 (or compound 13) on the development of psoriasis was investigated using the well-established psoriasis animal model, in which imiquimod (IMQ) was used to induce psoriasis-like skin inflammation. Briefly, BALB/c mice are pre-treated by intraperitoneal injection of HKI-4971 (20 mg/kg) for 30 min before 5% IMQ cream was topically administered onto the back of the mice every day for 7 days. Then, skin samples taken from these animals were subjected to microscopy examination and immunohistochemistry staining, while blood samples were subjected to analysis for liver and kidney functions. Results are depicted in FIGS. 1 to 3.
Blood samples taken from IMQ- or IMQ+HKI-4971 treated animals were analyzed for the levels of alanine aminotransferase and aspartate transaminase, which were used as indicators for assessing liver function; and the levels of blood […] nitrogen (BUN) and creatinine (CRE), which were used as indicators for assessing the kidney function. Results are illustrated in FIG. 3.

BALB/c mice [5] = assay: LPS-induced acute lung injury (ALI) model in mice; format: in vivo, mouse; details: 20 mg/Kg intravenous 1 hr before intratracheal LPS, 5 hrs
Description: as §2
Mice were pre-treated with a candidate compound (e.g., HKI-4971), which was dissolved in 50 μl saline solution containing 10% DMSO and 20% Kolliphor EL (Sigma-Aldrich, USA), by intravenous injection. […]
Lung tissues were homogenized in PBS (50 Mm, pH 6.0) containing 0.5% (w/v) hexadecyltrimethylammonium bromide (HETAB) (Sigma-Aldrich, USA) by using the MagNA Lyser Instrument (Roche, Germany), and was further centrifuged at 12,000×g for 20 min at 4° C. to remove the insoluble material. The peroxidase activity was measured as the oxidation of o-Dianisidine dihydrochloride (Sigma-Aldrich, USA). […] The absorption was determined spectrophotometrically at 405 nm. […]
In this example, the Gram-negative bacterial endotoxin LPS induced ALI in mice was employed to mimic ARDS in human, and the effect of HKI-4971 was evaluated. […]

melting point | Structure (SMILES) | also measured
236 to 237 °C | Nc1noc2c1c(Nc1ccc(O)cc1)nc1ccccc12 (as salt: salt) [Compound 29, 4-(4-Hydroxyanilino)isoxazolo[4,5-c]quinolin-3-amine] | 
173 to 175 °C | Cc1ccc(Nc2nc3ccccc3c3onc(N)c23)cc1 (as salt: salt) [Compound 33, 4-(4-Methylanilino)isoxazolo[4,5-c]quinolin-3-amine] | 
261 to 262 °C | COc1ccccc1Nc1nc2ccccc2c2onc(N)c12 (as salt: salt) [Compound 21, 4-(2-Methoxyanilino)isoxazolo[4,5-c]quinolin-3-amine] | 
268 to 269 °C | Nc1noc2c1c(Nc1ccc(Cl)cc1)nc1ccccc12 (as salt: salt) [Compound 32, 4-(4-Chloroanilino)isoxazolo[4,5-c]quinolin-3-amine] | 
262 to 263 °C | COc1cccc(Nc2nc3ccccc3c3onc(N)c23)c1 (as salt: salt) [Compound 22, 4-(3-Methoxyanilino)isoxazolo[4,5-c]quinolin-3-amine] | 
266 to 267 °C | Nc1noc2c1c(Nc1ccccc1)nc1ccccc12 (as salt: salt) [Compound 19, 4-Anilinoisoxazolo[4,5-c]quinolin-3-amine] | 
249 to 250 °C | CC(=O)c1cccc(Nc2nc3ccccc3c3onc(N)c23)c1 (as salt: salt) [Compound 26, 4-(3-Acetoylanilino)isoxazolo[4,5-c]quinolin-3-amine] | 
246 to 247 °C | CSc1ccc(Nc2nc3ccccc3c3onc(N)c23)cc1 (as salt: salt) [Compound 25, 4-(4-Methylthioanilino)isoxazolo[4,5-c]quinolin-3-amine] | 
284 to 286 °C | COc1cccc(Nc2nc3ccccc3c3c2c(N)nn3C)c1 (as salt: salt) [Compound 6, 4-(3-Methoxyanilino)-1-methyl-1H-pyrazolo[4,3-c]quinolin-3-amine] | 

Continued, compound first:

Structure (SMILES) | melting point | also measured
Cc1ccc(Nc2nc3ccccc3c3onc(N)c23)cc1 [Compound 33, 4-(4-Methylanilino)isoxazolo[4,5-c]quinolin-3-amine] |  | Superoxide Anion Inhibition % (human neutrophils [1]): enhanced
Cn1nc(N)c2c(Nc3ccc(O)cc3)nc3ccccc3c21 [Compound 13, 4-(4-Hydroxyanilino)-1-methyl-1H-pyrazolo[4,3-c]quinolin-3-amine] |  | IC50 (human neutrophils [2]): 32 ± 17 nM; Severity or progression of IMQ-induced psoriasis (BALB/c mice [3]; FIG. 1): reduce the severity or progression; Immunostaining of skin: markers for cell proliferation (ki-67) and for neutrophils (Ly6g and MPO) (BALB/c mice [3]; FIG. 2): reduced; Liver function (alanine aminotransferase, aspartate transaminase) and kidney function (BUN, creatinine) (BALB/c mice [4]): did not result in significant damage; MPO activity in lung tissues (BALB/c mice [5]; FIG. 4(A) (n=3)): suppressed; LPS-induced neutrophil infiltration and lung injury (H&E, Ly6g and MPO staining of lung sections) (BALB/c mice [5]; FIG. 4(B)): significantly alleviated
CSc1ccc(Nc2nc3ccccc3c3onc(N)c23)cc1 [Compound 25, 4-(4-Methylthioanilino)isoxazolo[4,5-c]quinolin-3-amine] |  | Superoxide Anion Inhibition % (human neutrophils [1]): enhanced
Cn1nc(N)c2c(Nc3ccccc3O)nc3ccccc3c21 (as salt: salt) [Compound 11, 4-(2-Hydroxyanilino)-1-methyl-1H-pyrazolo[4,3-c]quinolin-3-amine] | 233 to 235 °C | 
Nc1noc2c1c(Nc1ccc(C(F)(F)F)cc1)nc1ccccc12 (as salt: salt) [Compound 30, 4-(4-Trifluoromethylanilino)isoxazolo[4,5-c]quinolin-3-amine] | 227 to 229 °C | 
Cn1nc(N)c2c(Nc3ccc(Cl)cc3)nc3ccccc3c21 (as salt: salt) [Compound 17, 4-(4-Chloroanilino)-1-methyl-1H-pyrazolo[4,3-c]quinolin-3-amine] | 281 to 282 °C | 
Cn1nc(N)c2c(Nc3ccc(O)cc3)nc3ccccc3c21 (as salt: salt) [Compound 13, 4-(4-Hydroxyanilino)-1-methyl-1H-pyrazolo[4,3-c]quinolin-3-amine] | 320 to 322 °C | 
Nc1noc2c1c(Nc1ccc(C(F)(F)F)cc1)nc1ccccc12 [Compound 30, 4-(4-Trifluoromethylanilino)isoxazolo[4,5-c]quinolin-3-amine] |  | Superoxide Anion Inhibition % (human neutrophils [1]): enhanced
